From patent US11044911B2, “Phenoxyurea compound and pest control agent” (Nippon Soda Co., Ltd., priority 2018, dated 2021)

Experiments:
[1] = system: drug-resistant strain of Panonychus citri collected in Wakayama Prefecture; assay: Test Example 13: efficacy test against drug-resistant strain of Panonychus citri; assay type: in vivo; settings: 10 days, corrected insecticidal rate
Protocol: (§1) 5 parts by weight of the compound of the present invention, 93.6 parts by weight of dimethylformamide and 1.4 parts by weight of polyoxyethylene alkylaryl ether were mixed and dissolved to prepare an emulsion (I) containing 5% of an active ingredient.
(§2) Insecticidal rate (%)=(number of dead insects/number of tested insects)×100
(§3) In addition, an efficacy test against a drug-resistant strain of Panonychus citri collected in Wakayama Prefecture was conducted in the following manner.
(§4) 8 adult females of a drug resistant strain of Panonychus citri were inoculated on mandarin orange leaves placed in a petri dish. Then, the emulsion (I) was diluted with water so that the concentration of the compound was 37.5 ppm or 9.4 ppm to obtain a chemical. This chemical was sprayed onto the mandarin orange leaves with a rotary spray tower. The mandarin orange leaves were placed in a thermostatic chamber at a temperature of 25° C. and a humidity of 65%. The life and death of the spider mite were investigated when 10 days had passed after the spraying, and the corrected insecticidal rate was calculated.

[2] = system: drug-resistant strains of Tetranychus urticae; assay: Test Example 13: efficacy test against drug-resistant strains of Tetranychus urticae; assay type: in vivo; settings: 10 days
Text: as §1, §2
(§5) Efficacy tests against seven drug-resistant strains of Tetranychus urticae collected from various parts of Japan (one strain from Shizuoka Prefecture, Aomori Prefecture and Fukuoka Prefecture, and two strains from Chiba Prefecture and Nagano Prefecture) were conducted in the following manner.
as §4, with “drug-resistant strains” for “a drug resistant strain”, “spider mites” for “Panonychus citri”, “kidney bean plant” for “mandarin orange”, “the” for “the corrected”

eggplants = assay: Test Example 14: phytotoxicity test on eggplants; assay type: in vivo, eggplant; settings: 300 ppm spray; for Eggplant; 6- to 7-leaf stage After 14 days Leaf Phytotoxicity index: index 0 (no phytotoxicity) to 10 (plant death)
Text: (§6) A sufficient amount of chemical having a compound concentration of 300 ppm was sprayed onto eggplants at the 6- to 7-leaf stage using a glass nozzle, and they were left to stand in a greenhouse. The presence or absence of phytotoxicity was investigated after being left to stand for 14 days.
(§7) The symptoms of phytotoxicity were deformation and discoloration of leaves.

Tetranychus urticae = assay: Test Example 10: efficacy test against Tetranychus urticae (soil irrigation test); assay type: in vivo; settings: 25 ml of 400 ppm, strawberry seedling, 19 days after inoculation
Protocol: as §1
The emulsion (I) was diluted with tap water to prepare a drug solution having a concentration of 400 ppm. A plastic potted strawberry seedling was subjected to a plant foot irrigation treatment with 25 ml of the drug solution, and placed in a thermostatic chamber at a temperature of 25° C. and a humidity of 60%. Three days after the irrigation treatment, 15 adult females of Tetranychus urticae were inoculated on each seedling. The number of surviving insects 19 days after inoculation was investigated, and the control value was obtained by the following formula. The test was repeated twice. Control value (%)=100−{(Nt)/(Nc)×100}
The letters in the formula represent the following.
Nc: Number of surviving insects in the untreated group
Nt: Number of surviving insects in the treated group

cucumber plants = assay: Test Example 14: phytotoxicity test on cucumber plants; assay type: in vivo; settings: 300 ppm spray; for Cucumber; 1.5-leaf stage After 14 days Leaf Phytotoxicity index: index 0 (no phytotoxicity) to 10 (plant death)
Protocol: as §6, with “A test for phytotoxicity on cucumber plants was conducted as follows. A” for “A”, “cucumber plants” for “eggplants”, “1.5-leaf” for “6- to 7-leaf”
as §7

[3] = system: drug resistant strains of spider mites; assay: Test Example 13: summary over all drug resistant strains of spider mites; assay type: in vivo, Tetranychus urticae, Panonychus citri; settings: 9.4 ppm, all strains tested
Protocol: as §5
as §4, with “drug-resistant strains” for “a drug resistant strain”, “spider mites” for “Panonychus citri”, “kidney bean plant” for “mandarin orange”, “the” for “the corrected”
as §3
8 adult females of a drug resistant strain of Panonychus citri were inoculated on mandarin orange leaves placed in a petri dish. […] The life and death of the spider mite were investigated when 10 days had passed after the spraying, and the corrected insecticidal rate was calculated.

SMILES	insecticidal rate, Low-susceptible Panonychus citri from Wakayama Prefecture ([1]; 9.4 ppm)	insecticidal rate, Low-susceptible Panonychus citri from Wakayama Prefecture ([1]; 37.5 ppm)	insecticidal rate, Low-susceptible Tetranychus urticae from Fukuoka Prefecture ([2]; 9.4 ppm)	insecticidal rate, Low-susceptible Tetranychus urticae from Fukuoka Prefecture ([2]; 37.5 ppm)	Eggplant; 6- to 7-leaf stage After 14 days Leaf Phytotoxicity index (eggplants; Repetition A)	Eggplant; 6- to 7-leaf stage After 14 days Leaf Phytotoxicity index (eggplants; Repetition B)	Cucumber; 1.5-leaf stage After 14 days Leaf Phytotoxicity index (cucumber plants; Repetition A)	Cucumber; 1.5-leaf stage After 14 days Leaf Phytotoxicity index (cucumber plants; Repetition B)	insecticidal rate, Low-susceptible Tetranychus urticae 1 from Nagano Prefecture ([2]; 9.4 ppm)	insecticidal rate, Low-susceptible Tetranychus urticae 2 from Chiba Prefecture ([2]; 9.4 ppm)	insecticidal rate, Low-susceptible Tetranychus urticae 2 from Nagano Prefecture ([2]; 9.4 ppm)	insecticidal rate, Low-susceptible Tetranychus urticae from Aomori Prefecture ([2]; 9.4 ppm)	insecticidal rate, Low-susceptible Tetranyclus urticae 1 from Chiba Prefecture ([2]; 9.4 ppm)	insecticidal rate, Low-susceptible Tetranychus urticae 1 from Nagano Prefecture ([2]; 37.5 ppm)	insecticidal rate, Low-susceptible Tetranychus urticae 2 from Chiba Prefecture ([2]; 37.5 ppm)	insecticidal rate, Low-susceptible Tetranychus urticae 2 from Nagano Prefecture ([2]; 37.5 ppm)	insecticidal rate, Low-susceptible Tetranychus urticae from Aomori Prefecture ([2]; 37.5 ppm)	insecticidal rate, Low-susceptible Tetranyclus urticae 1 from Chiba Prefecture ([2]; 37.5 ppm)	further results
CCN(Oc1ccnc(C(F)(F)F)c1)C(=O)NC(C)(C)C(=O)NCC(F)(F)F [Compound (H)]	78%	96%	45%	96%	2	2	–	–	–	–	–	–	–	–	–	–	–	–	–
CCN(Oc1cc(Br)cc(C(F)(F)F)c1)C(=O)NC(C)(C)C(=O)NCC(F)(F)F [Compound 1-1, 2-{3-[3-Bromo-5-(trifluoromethyl)phenoxy]-3-ethylureido}-2-methyl-N-(2,2,2-trifluoroethyl)propanamide]	99%	100%	96%	99%	0	0	0	0	100%	97%	99%	93%	100%	100%	100%	100%	100%	100%	control value against Tetranychus urticae (Tetranychus urticae): ≥ 90%; phytotoxicity on cucumber plants (cucumber plants; 14 days): no phytotoxicity; insecticidal rate, Low-susceptible Tetranychus urticae from Shizuoka Prefecture ([2]; 9.4 ppm): 96%; insecticidal rate, Low-susceptible Tetranychus urticae from Shizuoka Prefecture ([2]; 37.5 ppm): 100%; efficacy against all drug resistant strains of spider mites [3]: ≥ 90; phytotoxicity on eggplants (eggplants; 14 days): no phytotoxicity
CCN(Oc1cc(Cl)cc(Br)c1)C(=O)NC(C)(C)C(=O)NCC(F)(F)F [Compound (D)]	–	–	–	–	3	3	5	7	73%	72%	45%	–	32%	99%	87%	96%	–	77%	–
CCN(Oc1cc(Br)nc(Br)c1)C(=O)NC(C)(C)C(=O)NCC(F)(F)F [Compound (G)]	60%	95%	–	–	2	2	2	2	78%	58%	70%	66%	53%	96%	91%	88%	97%	98%	–
